Laboratory results taken from ChEMBL document CHEMBL1201862, “PubChem BioAssay data set” (2004).
Several values for one entry are separate records, joined by “and”; a condition that tells them apart may be missing. Equal values may be shown once. Activity calls are given as the source filed them.

Legend:
[1] = target: T1, Heat shock factor protein 1 (Mus musculus, UniProt P38532); assay: HSF1 potentiators in luciferase reporter cells, confirmation, cell-based, NIH3T3, luminescence, dose retest (AID 435004); format: functional;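 further: stress induced by proteasome inhibitor MG132 added 30 min after compound; luciferase reporter driven by HSF1 response element in NIH3T3 cells; actives raise luminescence as potentiators of the MG132 stress response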
T1 sequence (P38532 whole entry): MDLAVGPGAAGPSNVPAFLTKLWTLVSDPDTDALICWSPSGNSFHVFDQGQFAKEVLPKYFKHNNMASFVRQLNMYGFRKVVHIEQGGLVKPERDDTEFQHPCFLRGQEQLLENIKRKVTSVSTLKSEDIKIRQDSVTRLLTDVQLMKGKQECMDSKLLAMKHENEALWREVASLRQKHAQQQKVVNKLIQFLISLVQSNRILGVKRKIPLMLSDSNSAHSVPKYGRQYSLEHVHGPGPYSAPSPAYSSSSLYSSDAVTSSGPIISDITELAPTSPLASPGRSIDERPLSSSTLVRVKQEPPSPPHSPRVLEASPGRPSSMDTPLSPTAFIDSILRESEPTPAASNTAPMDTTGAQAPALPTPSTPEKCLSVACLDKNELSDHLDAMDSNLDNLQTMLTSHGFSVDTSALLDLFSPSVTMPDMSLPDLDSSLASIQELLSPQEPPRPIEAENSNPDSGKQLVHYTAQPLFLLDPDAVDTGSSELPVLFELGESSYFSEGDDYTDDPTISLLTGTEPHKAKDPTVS

[2] = target: Botulinum neurotoxin type A (Clostridium botulinum (strain Hall / ATCC 3502 / NCTC 13319 / Type A), UniProt P0DPI1); assay: High-throughput multiplex microsphere dose response for inhibitors of toxin protease, specifically Botulinum neurotoxin light chain A protease, compounds from Cherry Pick 01.; format: functional; conditions: read-out: EC50_MICROM
Phospholipase D1 = Phospholipase D1 (Homo sapiens, UniProt Q13393); assay: PLD1 inhibitor potency in cells, dose response (AID 602151); format: functional;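 further: cellular PLD1 assay in Calu-1 cells stimulated with PMA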
Phospholipase D2 = Phospholipase D2 (Homo sapiens, UniProt O14939); assay: PLD2 inhibitor potency in cells, dose response (AID 602147); format: functional;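 further: cellular assay in HEK293 cells overexpressing GFP-tagged PLD2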
[3] = target: Cyclin-dependent kinase 5/CDK5 activator 1 (Homo sapiens, UniProt Q00535); assay: CDK5-p25 kinase inhibitors, specificity check, dose response, selectivity assay for GSK-3 alpha inhibitor project, biochemical, microfluidic mobility shift, dry powder (AID 588430)
[4] = target: Glycogen synthase kinase-3 alpha (Homo sapiens, UniProt P49840); assay: Inhibition of Human GSK-3 alpha Activity Measured in Biochemical System Using Microfluidics - 2063-06_Inhibitor_Dose_DryPowder_Activity_Set2. [Related pubchem assays (depositor defined):AID2709]
[5] = target: Glycogen synthase kinase-3 beta (Homo sapiens, UniProt P49841); assay: Inhibition of Human GSK-3 beta Activity Measured in Biochemical System Using Microfluidics - 2063-05_Inhibitor_Dose_DryPowder_Activity_Set2. [Related pubchem assays (depositor defined):AID2709]
[6] = target: T2, Short transient receptor potential channel 4 (Mus musculus, UniProt Q9QUQ5); assay: SAR Analysis for the identification of selective inhibits of the transient receptor potential cation channel C4 (TRPC4): Automated Electrophysiology_2. [Related pubchem assays (depositor defined):AID2256]; format: functional
T2 sequence (Q9QUQ5 whole entry): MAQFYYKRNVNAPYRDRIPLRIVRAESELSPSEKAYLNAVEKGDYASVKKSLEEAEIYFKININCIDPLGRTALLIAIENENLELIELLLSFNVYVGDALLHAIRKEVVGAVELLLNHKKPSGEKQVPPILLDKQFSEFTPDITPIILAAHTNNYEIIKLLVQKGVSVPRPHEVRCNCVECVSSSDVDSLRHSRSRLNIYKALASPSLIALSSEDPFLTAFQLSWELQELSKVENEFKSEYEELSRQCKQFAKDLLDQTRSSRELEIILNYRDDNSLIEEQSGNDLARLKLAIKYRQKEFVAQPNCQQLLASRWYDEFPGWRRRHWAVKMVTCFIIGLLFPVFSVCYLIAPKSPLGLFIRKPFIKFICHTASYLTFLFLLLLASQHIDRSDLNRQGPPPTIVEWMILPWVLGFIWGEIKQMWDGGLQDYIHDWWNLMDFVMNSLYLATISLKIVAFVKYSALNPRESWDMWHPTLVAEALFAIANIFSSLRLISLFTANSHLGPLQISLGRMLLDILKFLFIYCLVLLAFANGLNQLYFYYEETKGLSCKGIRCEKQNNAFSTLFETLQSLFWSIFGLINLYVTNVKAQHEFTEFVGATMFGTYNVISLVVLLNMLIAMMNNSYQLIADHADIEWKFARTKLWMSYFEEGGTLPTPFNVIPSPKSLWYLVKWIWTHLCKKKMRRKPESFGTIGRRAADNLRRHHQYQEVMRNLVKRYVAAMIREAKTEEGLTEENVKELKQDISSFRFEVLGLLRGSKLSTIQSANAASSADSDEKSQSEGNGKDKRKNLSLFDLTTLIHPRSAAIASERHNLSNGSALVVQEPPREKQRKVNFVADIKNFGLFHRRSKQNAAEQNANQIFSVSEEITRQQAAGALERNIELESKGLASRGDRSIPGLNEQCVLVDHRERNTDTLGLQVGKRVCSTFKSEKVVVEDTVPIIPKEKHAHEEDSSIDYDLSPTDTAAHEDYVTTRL

[7] = target: T2, Short transient receptor potential channel 4; assay: SAR Analysis for the identification of selective inhibitors of the transient receptor potential cation channel C4 (TRPC4): TRPC4 Serotonin Receptor CRC MPD assay. [Related pubchem assays (depositor defined):AID2247, AID2256]; format: functional
[8] = target: T2, Short transient receptor potential channel 4; assay: TRPC4 inhibition under acetylcholine activation, SAR follow-up, cell-based, acetylcholine stimulus, HEK293 TRPC4, Fluo-4 (AID 492996); format: functional
[9] = target: Short transient receptor potential channel 6 (Mus musculus, UniProt Q61143); assay: TRPC6 inhibition potency of TRPC4 inhibitor analogs, dose response, selectivity assay for selective TRPC4 inhibitor project, HEK293 cells, membrane potential dye, IC50 (AID 492987); format: functional, cell-based
[10] = target: T2, Short transient receptor potential channel 4; assay: TRPC4 inhibitor concentration-response, dose response, cell-based, HEK293 TRPC4/mu-opioid, DAMGO stimulus, Fluo-4 (AID 492994); format: functional

Sequence of Botulinum neurotoxin type A (P0DPI1 2-448 limits assumed): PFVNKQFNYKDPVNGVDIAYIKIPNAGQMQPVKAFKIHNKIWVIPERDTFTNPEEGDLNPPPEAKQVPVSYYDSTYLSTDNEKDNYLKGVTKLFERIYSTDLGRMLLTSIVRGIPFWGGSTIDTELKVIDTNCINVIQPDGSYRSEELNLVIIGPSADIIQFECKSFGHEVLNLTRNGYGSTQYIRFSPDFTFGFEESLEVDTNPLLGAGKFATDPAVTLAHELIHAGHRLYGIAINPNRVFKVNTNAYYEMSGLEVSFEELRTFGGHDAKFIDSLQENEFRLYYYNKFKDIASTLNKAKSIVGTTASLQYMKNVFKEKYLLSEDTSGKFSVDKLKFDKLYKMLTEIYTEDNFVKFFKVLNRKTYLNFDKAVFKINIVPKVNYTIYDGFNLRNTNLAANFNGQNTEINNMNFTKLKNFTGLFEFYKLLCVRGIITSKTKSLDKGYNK
Sequence of Phospholipase D1 (Q13393 whole entry): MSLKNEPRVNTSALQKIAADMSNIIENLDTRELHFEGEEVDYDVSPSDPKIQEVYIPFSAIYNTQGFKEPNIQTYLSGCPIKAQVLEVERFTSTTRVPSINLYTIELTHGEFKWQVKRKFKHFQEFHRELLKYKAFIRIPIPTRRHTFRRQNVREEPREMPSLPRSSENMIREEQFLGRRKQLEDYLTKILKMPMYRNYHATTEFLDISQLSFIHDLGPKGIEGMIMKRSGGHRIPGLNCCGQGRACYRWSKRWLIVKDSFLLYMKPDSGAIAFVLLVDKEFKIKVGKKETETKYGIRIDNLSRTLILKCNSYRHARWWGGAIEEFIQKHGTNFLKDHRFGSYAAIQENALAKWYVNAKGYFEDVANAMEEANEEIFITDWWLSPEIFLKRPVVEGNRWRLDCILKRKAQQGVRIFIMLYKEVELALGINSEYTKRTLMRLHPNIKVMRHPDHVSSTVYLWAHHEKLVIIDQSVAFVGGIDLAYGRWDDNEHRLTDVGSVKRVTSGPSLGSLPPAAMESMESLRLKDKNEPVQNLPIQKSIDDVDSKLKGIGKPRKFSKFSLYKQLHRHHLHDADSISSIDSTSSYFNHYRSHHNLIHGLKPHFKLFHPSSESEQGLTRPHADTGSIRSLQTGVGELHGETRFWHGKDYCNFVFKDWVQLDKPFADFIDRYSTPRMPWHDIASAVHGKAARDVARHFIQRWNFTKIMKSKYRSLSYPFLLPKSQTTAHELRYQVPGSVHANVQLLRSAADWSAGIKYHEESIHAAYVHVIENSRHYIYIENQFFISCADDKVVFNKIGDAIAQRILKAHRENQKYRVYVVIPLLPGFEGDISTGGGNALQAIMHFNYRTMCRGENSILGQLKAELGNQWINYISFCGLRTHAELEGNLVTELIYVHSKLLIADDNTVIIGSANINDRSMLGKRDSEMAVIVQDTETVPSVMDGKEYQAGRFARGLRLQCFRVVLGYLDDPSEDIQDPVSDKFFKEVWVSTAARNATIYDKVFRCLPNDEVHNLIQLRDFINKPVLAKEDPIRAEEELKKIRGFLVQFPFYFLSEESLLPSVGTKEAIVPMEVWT
Sequence of Glycogen synthase kinase-3 alpha (P49840 whole entry): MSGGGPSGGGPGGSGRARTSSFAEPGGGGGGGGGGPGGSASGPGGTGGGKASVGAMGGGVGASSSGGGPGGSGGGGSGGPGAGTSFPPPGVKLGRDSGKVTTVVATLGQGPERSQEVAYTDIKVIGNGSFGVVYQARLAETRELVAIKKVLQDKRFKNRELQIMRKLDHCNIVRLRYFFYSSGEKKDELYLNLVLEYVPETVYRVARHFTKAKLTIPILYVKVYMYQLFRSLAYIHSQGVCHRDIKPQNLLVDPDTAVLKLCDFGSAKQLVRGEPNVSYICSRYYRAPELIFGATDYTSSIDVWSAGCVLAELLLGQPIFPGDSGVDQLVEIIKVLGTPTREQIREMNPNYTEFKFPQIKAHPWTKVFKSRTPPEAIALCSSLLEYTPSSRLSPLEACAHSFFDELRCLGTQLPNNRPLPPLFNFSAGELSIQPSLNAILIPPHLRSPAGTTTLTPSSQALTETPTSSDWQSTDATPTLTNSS
Sequence of Short transient receptor potential channel 6 (Q61143 whole entry): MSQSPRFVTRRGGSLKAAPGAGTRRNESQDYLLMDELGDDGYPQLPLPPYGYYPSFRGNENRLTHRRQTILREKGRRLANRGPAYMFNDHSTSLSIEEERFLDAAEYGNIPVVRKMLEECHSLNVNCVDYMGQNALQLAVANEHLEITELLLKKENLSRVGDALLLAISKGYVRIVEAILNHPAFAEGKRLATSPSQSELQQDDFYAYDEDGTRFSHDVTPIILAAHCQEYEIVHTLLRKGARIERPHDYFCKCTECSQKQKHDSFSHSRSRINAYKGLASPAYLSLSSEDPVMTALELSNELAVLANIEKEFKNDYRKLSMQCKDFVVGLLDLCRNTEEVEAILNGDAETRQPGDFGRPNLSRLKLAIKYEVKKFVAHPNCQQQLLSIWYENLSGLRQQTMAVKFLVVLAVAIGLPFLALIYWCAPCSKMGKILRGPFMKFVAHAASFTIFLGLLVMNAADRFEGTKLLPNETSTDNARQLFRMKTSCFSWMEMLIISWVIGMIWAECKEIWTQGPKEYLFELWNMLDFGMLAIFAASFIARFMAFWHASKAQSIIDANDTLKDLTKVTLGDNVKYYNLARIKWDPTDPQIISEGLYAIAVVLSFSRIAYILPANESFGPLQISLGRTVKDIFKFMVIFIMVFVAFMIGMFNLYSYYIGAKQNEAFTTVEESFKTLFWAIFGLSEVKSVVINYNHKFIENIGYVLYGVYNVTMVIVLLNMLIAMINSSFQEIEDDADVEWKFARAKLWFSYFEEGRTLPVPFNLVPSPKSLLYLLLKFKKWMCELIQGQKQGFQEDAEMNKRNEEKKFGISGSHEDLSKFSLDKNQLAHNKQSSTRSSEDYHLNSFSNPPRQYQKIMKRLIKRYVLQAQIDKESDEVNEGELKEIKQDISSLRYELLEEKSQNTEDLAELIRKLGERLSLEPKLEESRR
Sequence of Phospholipase D2 (O14939 whole entry): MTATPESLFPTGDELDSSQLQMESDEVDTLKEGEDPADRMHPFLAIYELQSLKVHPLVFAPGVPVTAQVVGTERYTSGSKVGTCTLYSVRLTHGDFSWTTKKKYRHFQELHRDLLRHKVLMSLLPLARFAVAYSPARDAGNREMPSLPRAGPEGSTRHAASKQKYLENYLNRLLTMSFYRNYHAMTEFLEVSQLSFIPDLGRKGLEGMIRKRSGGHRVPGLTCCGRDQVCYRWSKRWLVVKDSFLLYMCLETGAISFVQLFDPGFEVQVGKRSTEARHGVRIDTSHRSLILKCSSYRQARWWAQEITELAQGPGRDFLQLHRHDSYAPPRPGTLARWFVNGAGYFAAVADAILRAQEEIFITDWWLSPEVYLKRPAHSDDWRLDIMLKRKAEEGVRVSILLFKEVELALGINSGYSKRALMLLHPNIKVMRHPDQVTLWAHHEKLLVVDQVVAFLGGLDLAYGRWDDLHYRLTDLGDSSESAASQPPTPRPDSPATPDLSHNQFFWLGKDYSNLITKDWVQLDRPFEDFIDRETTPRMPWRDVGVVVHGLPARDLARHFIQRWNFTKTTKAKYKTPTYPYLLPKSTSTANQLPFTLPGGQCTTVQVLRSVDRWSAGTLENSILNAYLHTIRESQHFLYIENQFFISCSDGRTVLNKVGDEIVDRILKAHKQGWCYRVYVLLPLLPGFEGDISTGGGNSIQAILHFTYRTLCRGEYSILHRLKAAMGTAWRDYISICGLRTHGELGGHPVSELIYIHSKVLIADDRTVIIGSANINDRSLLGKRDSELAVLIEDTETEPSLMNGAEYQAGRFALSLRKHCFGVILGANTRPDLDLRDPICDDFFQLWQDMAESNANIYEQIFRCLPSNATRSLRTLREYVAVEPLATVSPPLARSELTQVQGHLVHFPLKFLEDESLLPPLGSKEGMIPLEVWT
Sequence of Cyclin-dependent kinase 5/CDK5 activator 1 (Q00535 whole entry): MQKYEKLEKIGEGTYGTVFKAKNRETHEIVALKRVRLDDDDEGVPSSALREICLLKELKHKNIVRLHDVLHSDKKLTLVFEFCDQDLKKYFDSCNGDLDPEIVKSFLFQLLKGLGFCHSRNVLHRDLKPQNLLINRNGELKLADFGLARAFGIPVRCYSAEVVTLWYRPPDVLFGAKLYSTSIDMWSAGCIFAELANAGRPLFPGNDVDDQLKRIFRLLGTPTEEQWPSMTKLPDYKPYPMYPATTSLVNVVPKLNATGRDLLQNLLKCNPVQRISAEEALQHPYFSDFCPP
Sequence of Cyclin-dependent kinase 5/CDK5 activator 1 (Q15078 whole entry, further chain): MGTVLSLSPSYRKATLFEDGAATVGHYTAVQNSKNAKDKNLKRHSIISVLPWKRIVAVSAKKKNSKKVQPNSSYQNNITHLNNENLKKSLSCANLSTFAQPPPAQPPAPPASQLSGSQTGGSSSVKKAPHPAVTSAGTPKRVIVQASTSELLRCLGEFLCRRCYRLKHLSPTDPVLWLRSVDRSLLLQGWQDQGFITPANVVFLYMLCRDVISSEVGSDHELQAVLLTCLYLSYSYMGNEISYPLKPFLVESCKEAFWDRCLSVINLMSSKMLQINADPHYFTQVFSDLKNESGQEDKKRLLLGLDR
Sequence of Glycogen synthase kinase-3 beta (P49841 whole entry): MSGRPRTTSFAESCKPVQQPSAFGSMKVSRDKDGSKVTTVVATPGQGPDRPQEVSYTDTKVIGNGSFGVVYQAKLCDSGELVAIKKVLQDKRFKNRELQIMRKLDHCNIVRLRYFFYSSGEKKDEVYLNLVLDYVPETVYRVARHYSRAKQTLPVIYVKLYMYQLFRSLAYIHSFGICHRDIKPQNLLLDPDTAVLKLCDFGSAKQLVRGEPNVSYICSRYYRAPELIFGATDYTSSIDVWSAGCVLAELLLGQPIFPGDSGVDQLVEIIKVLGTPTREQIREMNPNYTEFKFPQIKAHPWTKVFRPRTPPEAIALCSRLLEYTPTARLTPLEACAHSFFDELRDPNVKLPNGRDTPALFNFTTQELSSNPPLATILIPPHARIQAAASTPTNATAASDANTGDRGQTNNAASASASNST

COc1ccc(C2CC(c3cccs3)=NN2c2nc(C)c(C(C)=O)s2)cc1OC (configuration not stated)
active: EC50 [1] 111 µM | EC50 [2] 7.9 µM and 4.8 µM

C[C@@H](CN1CCC(n2c(=O)[nH]c3ccccc32)CC1)NC(=O)c1ccc2ncccc2c1
active: IC50 (Phospholipase D1) 0.017 µM | IC50 (Phospholipase D2) 4.1 µM

CCCN(CCC)Cc1c(C(=O)N/N=C/c2ccoc2)nnn1-c1nonc1N
active: AC50 [3] 40.6 µM | AC50 [4] 1.24 µM | AC50 [5] 0.457 µM

Cc1cc(N2CCCC2)nc2ccc(F)cc12
active: IC50 [6] 3.94 µM | IC50 [7] 1.41 µM | IC50 [8] 17.4 µM | IC50 [9] 7.76 µM | IC50 [10] 0.93 µM
